Earlier results on 6 compounds are cited in patent publication US20040106561A1, “Health supplement” (Novogen Research Pty. Ltd., priority 1992, published 2004).

One data set relates to oestrogen receptors. Particulars: animal and in vitro studies.
Regarding `O=c1c(-c2ccc(O)cc2)coc2cc(O)cc(O)c12` [genistein], the “oestrogenic/anti-oestrogenic activity and SHBG-stimulating capacity relative to daidzein and formononetin” value is listed as “approximately 10 times”.

The data set is the same for the next values; noted with them: in vitro and in vivo studies; descending order genistein, biochanin A, equol, daidzein, formononetin.
For the compound `CC(C(=O)c1ccc(O)cc1O)c1ccc(O)cc1` (stereo not shown) [O-desmethylangolensin], the oestrogenic activity result is given as “only very weakly oestrogenic”.
Turning to `COc1ccc(-c2coc3cc(O)cc(O)c3c2=O)cc1` [biochanin A], the oestrogenic activity result is on record as “oestrogenic activity”.
Turning to `O=c1c(-c2ccc(O)cc2)coc2cc(O)ccc12` [daidzein], the oestrogenic activity result was “oestrogenic activity”.
`Oc1ccc([C@H]2COc3cc(O)ccc3C2)cc1` [equol]: the oestrogenic activity entry is “oestrogenic activity”.
As to `O=c1c(-c2ccc(O)cc2)coc2cc(O)cc(O)c12` [genistein], the oestrogenic activity result is given as “oestrogenic activity”.
As for `COc1cc2c(=O)c(-c3ccc(O)cc3)coc2cc1O` [glycitein], the oestrogenic activity entry is reported as “non-oestrogenic”.
